# Measurements reported in patent publication US9796713B2, “Tricyclic compounds as alpha-7 nicotinic acetylcholine receptor ligands” (BRISTOL-MYERS SQUIBB COMPANY, priority 2014, dated 2017).
# Read-outs that look alike come from different tables or passages of the source.
# Target: T1, α7-HI (Rattus norvegicus, UniProt Q05941)
# T1 construct: expressed in transfected cells
# Experiment: FLIPR Ca2+-sensitive fluorescence assay, α7-HI (agonist activity) in HEK 293 cells
# Format: cell-based
# Procedure: I) α7 Nicotinic Acetycholine Receptor Binding. Membranes were prepared for binding using HEK293 cells stably expressing the rat α7 nicotinic acetycholine receptor (rat α7 nAChR). Cells were homogenized at 4° C. in hypotonic lysis buffer consisting of 10 mM Tris (pH 7.4), 5 mM EDTA and protease inhibitors and centrifuged at 32000×g for 20 minutes. The pellet was washed once in membrane wash buffer consisting of 50 mM Tris (pH 7.4), 1 mM EDTA and protease inhibitors and centrifuged at 32000×g for 20 minutes. This pellet was then resuspended in assay buffer consisting 50 mM KH2PO4 (pH 7.4 at 25° C.), 1 mM EDTA, 0.005% Triton-X 100 and 0.1% (v/v) Sigma Protease Inhibitor Cocktail. Aliquots were then frozen in dry ice/ethanol and kept at −80° C. until the day of the assay. II) A Ca^2+-Sensitive, Fluorescence-Based Assay α-7 for Nicotinic Acetylcholine Receptor Channel Function in Mammalian Cells (“FLIPR”). Summary: Lead compounds are evaluated for agonist activity at α-7, α3β4, α4αβ2, and α1β1δ1ε sub-types of nicotinic ACh receptor ion channels expressed in mammalian HEK 293 cells. Agonist potency and efficacy values are determined from kinetic fluorescence Ca^2+ influx measurements made using a 384 well FLIPR (Fluorescence Image Plate Reader). […] In this assay, channel expressing HEK cell lines seeded in 384 well assay plates are loaded with a membrane permeant fluorescent Ca^2+ indicator dye, whose 510 nm green emission signal increases in response to elevation of intracellular Ca^2+ concentration. The basal fluorescence from the cells is monitored in real time, followed by the acute addition of test compounds.
# Materials and Methods: Reagents: The acetomethoxy (AM) ester of the Ca^2+ indicator dye Fluo-4 was obtained from InVitrogen, (Carlsbad, Calif.). Acetylcholine and all buffer constituents were purchased from Sigma Chemical Company, St. Louis, Mo. G418 and Minimal Essential Medium were purchased from InVitrogen Life Technologies, Carlsbad, Calif. Fetal bovine serum was purchased from (InVitrogen, Carlsbad, Calif.).
# Cell Culture: HEK-293 cells were grown in Minimal Essential Medium containing 10% (v/v) fetal bovine serum at 37° C. in a 5% CO2 incubator. HEK-293 cells stably expressing the ion channels were grown in the same medium with the addition of 500 μg/ml G418.
# Ca^2+ flux assays of Ca^2+ channels expressed in HEK-293 cells: HEK-293 cells expressing the ion channels of interest were plated in 384 well, black-walled, clear-bottomed, poly-D-lysine coated plates at a density of ˜20,000 cells/well in 20 μl of Minimal Essential Medium containing 10% (v/v) fetal bovine serum and incubated for 2 days at 29° C. in a 5% CO2 incubator. Prior to assay, cells were loaded with the Fluo-4 AM ester. […] Dye loading was allowed to proceed for 90 minutes at room temperature at which time the dye loading solution was removed and replaced with 40 μl/well of Hanks buffer. Cells loaded with dye were loaded onto a FLIPR384 (Molecular Devices, Sunnyvale, Calif.). Fluo-4 dye was excited using the 488 nm line of an argon laser. Emission was filtered using a 540+/−30 nm bandpass filter. For evaluation of the effects of test compounds using the Ca^2+ flux assay, compounds to be tested were provided in assay ready plates. For nicotinic receptor ion channel expressing cells, the assay was initiated by the addition of 20 μl/well of Hanks buffer containing test compounds. For all assays, data were collected at 1 Hz for 10 seconds (baseline), at which time the compound containing stimulus buffers are added, and further measurements collected at 0.33 Hz for 3 min.
# Data Analysis: The statistical robustness of the nicotinic receptor Ca^2+ flux assays is determined from blanks and totals wells. […] The raw fluorescence units data files generated on the FLIPR plate reader are automatically exported and processed by in-house data analysis tools.
# [1] = Table 4, Ca2+ flux, HEK-293 cells expressing the channel, read-out: FLIPR α7-HI (EC50)
# T1 sequence (Q05941 23-502): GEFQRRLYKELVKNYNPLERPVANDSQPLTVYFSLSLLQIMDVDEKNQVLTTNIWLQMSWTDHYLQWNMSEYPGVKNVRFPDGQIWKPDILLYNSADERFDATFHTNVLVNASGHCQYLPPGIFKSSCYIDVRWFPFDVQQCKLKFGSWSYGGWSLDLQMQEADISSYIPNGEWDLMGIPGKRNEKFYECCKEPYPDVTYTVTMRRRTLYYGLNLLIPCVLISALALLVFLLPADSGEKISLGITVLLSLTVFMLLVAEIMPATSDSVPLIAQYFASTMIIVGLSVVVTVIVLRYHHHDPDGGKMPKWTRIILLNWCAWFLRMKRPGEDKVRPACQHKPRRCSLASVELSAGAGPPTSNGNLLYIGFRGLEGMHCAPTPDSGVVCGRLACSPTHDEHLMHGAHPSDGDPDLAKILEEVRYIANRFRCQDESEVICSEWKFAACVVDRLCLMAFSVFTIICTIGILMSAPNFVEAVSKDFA
SMILES,EC50 [1] [nM],EC50 [nM]
"COc1ccc2c(C(=O)N3C4CC5CN(CCC53)C4)n[nH]c2c1 (stereo not drawn) [Example 43, ((2S*,3aR*,5R*,7aS*)-(6-methoxy-1H-indazol-3-yl)(hexahydro-2,5-methanopyrrolo[3,2-c]pyridin-1(6H)-yl)methanone]",23,
"O=C(c1n[nH]c2ccc(Br)cc12)N1C2CC3CN(CCC31)C2 (stereo not drawn) [Example 44, ((2S*,3aR*,5R*,7aS*)-(5-bromo-1H-indazol-3-yl)(hexahydro-2,5-methanopyrrolo[3,2-c]pyridin-1(6H)-yl)methanone]",> 100000,
"O=C(c1cc(-c2ccccc2)n[nH]1)N1C2CC3CN(CCC31)C2 (stereo not drawn) [Example 38, ((2S*,3aR*,5R*,7aS*)-(hexahydro-2,5-methanopyrrolo[3,2-c]pyridin-1(6H)-yl)(3-phenyl-1H-pyrazol-5-yl)methanone]",> 100000,
"O=C(c1noc2ccccc12)N1C2CC3CN(CCC31)C2 (stereo not drawn) [Example 47, ((2S*,3aR*,5R*,7aS*)-benzo[d]isoxazol-3-yl(hexahydro-2,5-methanopyrrolo[3,2-c]pyridin-1(6H)-yl)methanone]",1300,
"O=C(c1n[nH]c2ccccc12)N1C2CC3CN(CCC31)C2 (stereo not drawn) [Example 34, ((2S*,3aR*,5R*,7aS*)-hexahydro-2,5-methanopyrrolo[3,2-c]pyridin-1(6H)-yl)(1H-indazol-3-yl)methanone]",29,
"Cn1cc(C(=O)N2C3CC4CN(CCC42)C3)c2ccccc21 (stereo not drawn) [Example 39, ((2S*,3aR*,5R*,7aS*)-(hexahydro-2,5-methanopyrrolo[3,2-c]pyridin-1(6H)-yl)(1-methyl-1H-indol-3-yl)methanone]",> 100000,
"Cn1nc(C(=O)N2C3CC4CN(CCC42)C3)c2ccccc21 (stereo not drawn) [Example 37, ((2S*,3aR*,5R*,7aS*)-(hexahydro-2,5-methanopyrrolo[3,2-c]pyridin-1(6H)-yl)(1-methyl-1H-indazol-3-yl)methanone]",> 100000,
"COc1ccc2[nH]nc(C(=O)N3C4CC5CN(CCC53)C4)c2c1 (stereo not drawn) [Example 41, ((2S*,3aR*,5R*,7aS*)-(5-methoxy-1H-indazol-3-yl)(hexahydro-2,5-methanopyrrolo[3,2-c]pyridin-1(6H)-yl)methanone]",> 100000,
"O=C(c1n[nH]c2ccccc12)N1[C@@H]2C[C@H]3C[N@](CC[C@H]31)C2 [Example 34b, ((2R,3aS,5S,7aR)-hexahydro-2,5-methanopyrrolo[3,2-c]pyridin-1(6H)-yl)(1H-indazol-3-yl)methanone]",,250
